Data: US8785416B2, “Sulphated disaccharides for the treatment of neurodegenerative and/or neurovascular diseases” (Bioiberica, S.A., priority 2009, dated 2014)

Tests used:
Type in all cases: cell-based
[1] = system: SH-SY5Y human neuroblastoma cell line; assay: Cell toxicity study, LDH release, SH-SY5Y cells incubated 48 hours; settings: 100 μM, 48 hours incubation
Protocol: The cell toxicity studies were performed on the SH-SY5Y human neuroblastoma cell line, incubating said cells for 48 hours with the compound under study. The cell viability was assessed by quantifying the release of lactate dehydrogenase (LDH), which is a cytoplasmic enzyme which is released into the extracellular medium when the integrity of the cytoplasmic membrane is lost.

rat hippocampal slices [2] = assay: Oxygen and glucose deprivation (1 hour OGD, 2 hours reoxygenation) in hippocampal slices, LDH release
Protocol: (§1) Male Spague Dawley strain rats (250-325 g) were used. After anaesthesia by means of an intraperitoneal injection of 60 mg/Kg sodium pentobarbital (Euta-Lender®), they were decapitated with a guillotine and the brain was extracted after a craniotomy. The brain was immediately submersed in a dissection solution, a cold (4° C.) modified Krebs-Henseleit solution at pH 7.4, the composition of which is: 120 mM NaCl, 2 mM KCl, 0.5 mM CaCl2, 26 mM NaHCO3, 10 mM MgSO4, 1.18 mM KH2PO4, 11 mM glucose and 200 mM sucrose, bubbled with 95% O2-5% CO2. The hippocampi were isolated, embedded in 2% low melting point agarose (Sigma-Aldrich), and cut into 350 μm transverse slices in a vibratome (Leica VT1000S).
After the cutting in the vibratome, the slices were transferred to a vial with sucrose-free dissection Krebs solution, bubbled with 95% O2-5% CO2 for 60 minutes (equilibrium period). […]
For the protocol of 1 hour of OGD followed by 2 hours of reoxygenation, the viability was determined by measuring the release of LDH into the extracellular medium according to the method described in Example 3. The quantification of LDH was performed in samples taken (i) after the preincubation period, (ii) after the hour of OGD and (iii) after each hour of reoxygenation (1 hour and 2 hours).

rat hippocampal slices [3] = assay: Oxygen and glucose deprivation (15 minutes OGD, 2 hours reoxygenation) in hippocampal slices, MTT cell viability
Protocol: as §1
After the cutting in the vibratome, the slices were transferred to a vial with sucrose-free dissection Krebs solution, bubbled with 95% O2-5% CO2 for 60 minutes (equilibrium period).
After the equilibrating period, the medium was removed and an oxygenated solution (normal Krebs solution (120 mM NaCl, 2 mM KCl, 2 mM CaCl2, 26 mM NaHCO3, 1.19 mM MgSO4, 1.18 mM KH2PO4 and 11 mM glucose), bubbled with 5% CO2 and 95% O2 for 30 minutes (preincubation period), was introduced. The baseline slices were maintained in this oxygenated solution throughout the entire experiment. To induce OGD, the oxygenated solution was replaced with another one which lacked glucose and was bubbled with a mixture of gases of 5% CO2 and 95% N2 (anoxic solution). The slices were in a bath at 37° C. After inducing OGD, the anoxic medium was replaced with another one which contained the oxygenated solution (reoxygenation period).
To evaluate the effect of the compounds, they were incubated for the 30 minutes of the preincubation and throughout the OGD and during the reoxygenation. Two OGD-reoxygenation protocols were used: (i) 1 hour of OGD and 2 hours of reoxygenation and (ii) 15 minutes of OGD followed by 2 hours of reoxygenation.
When the OGD-reoxygenation protocol (ii): 15 minutes of OGD followed by 2 hours of reoxygenation was used, the slices were incubated with increasing concentrations of compound Ic (0.3 and 1 μM) or with increasing concentrations of compound Ib (1 and 3 μM). In the same study these two compounds of the invention were compared with N-acetylcysteine (NAC) at 10 mM. The baseline (slices in the absence of compound Ic or Ib and of OGD) and the control (slices in the absence of compound Ic or Ib and with OGD) were also included.
For the protocol of 15 minutes of OGD followed by 2 hours of reoxygenation, the cell viability was evaluated by means of the tetrazolium salt MTT, which is internalized in those cells which are viable and are therefore capable of reducing the tetrazolium to formazan which is an insoluble and coloured product which is deposited in the […]. To that end, after the experiment had ended, the hippocampal slices were incubated with MTT at a final concentration of 0.5 mg/mL in a Krebs-HEPES solution (in mM: NaCl, 144; KCl, 5.9; MgCl2, 1.2; CaCl2, 2; HEPES, 10; glucose, 11; at pH 7.3) at 37° C. After 3 hours, the medium was removed and the formazan precipitated in the solution was dissolved in dimethylsulfoxide. Then, the absorbance was measured in a plate reader (Labsystems iEMS Reader MF), at 500 nm. The data were represented taking the result of the baseline slices, i.e., those not subjected to OGD, as 100% viability.

Q: With “methyl 2-acetamido-2-deoxy-3-O-(β-D-glucopyranosyluronic acid)-4,6-di-O-sulpho-α-D-glucopyranoside, trisodium salt [compound Ic]” as the substance, how does the “cell toxicity (release of LDH)” value [1] read?
A: The value was “did not show toxicity”.

Q: And the “protective effect against cell death (LDH release)” value (rat hippocampal slices [2]; 1 μM, at 2 hours of reoxygenation after 1 hour OGD)?
A: Its value is 40%.

Q: And the “effect on cell death after one hour of OGD followed by 2 hours of reoxygenation” value (rat hippocampal slices [2]; 1 and 10 μM)?
A: Its value is “reduced cell death in a concentration-dependent”.

Q: And the “maximum statistically significant protection (cell viability, MTT)” value (rat hippocampal slices [3]; 1 μM, 15 minutes OGD, 2 hours reoxygenation, baseline 100%, control 67%)?
A: The value was 93%.

Q: And the “efficacy in comparison with N-acetylcysteine” value (rat hippocampal slices [3]; Ic 0.3 and 1 μM, Ib 1 and 3 μM vs N-acetylcysteine 10 mM)?
A: The value was “higher efficacy”.
